Tested on: Streptococcus mutans (Smu) THF riboswitch aptamer (RNA, riboswitch) GGAGAGUAGAUGAUUCGCGUUAAGUGUGUGUGAAUGGGAUGUCGUCACACAACGAAGCGAGAGCGCGGUGAAUCAUUGCAUCCGCUCCA
Experiment: ITC
Settings: 70 mM NaCl, 2.5 mM MgCl2, 70 mM Na-HEPES pH 8.0, 1 mM DTT, 37 °C

| Structure (SMILES) | KD [µM] | KD (PK site only) [µM] |
| --- | --- | --- |
| Nc1nc2c(N)ncnc2[nH]1 | 160 ± 20 |  |
| Nc1ncnc2[nH]cnc12 | 8 ± 1 |  |
| Nc1nc(N)c2[nH]cnc2n1 |  | 0.5 ± 0.1 |
| Nc1ncc2[nH]cnc2n1 | 26 ± 3 |  |
